Marks after values point to notes of the source that are not given here. Square brackets hold non-standard residues; d marks the D form. Ends that are not written are not given here.
How the values were obtained:
Format in all cases: in vivo, mouse
[1] = Truncated and D-amino acid-substituted analogs: body weight, food and water intake in female C57BL/6J ob/ob mice, 7 days; conditions: for Cumulative water intake / Cumulative food intake / Heavier (+) or lighter (−) than initial weight / Weight gain (+) or loss (−) / Cumulative food intake g/mouse3 g/mouse3 / Decrease(%) of cumulative food intake: 1 mg/day ip; for Cumulative food intake / Heavier (+) or lighter (−) than initial weight / Weight gain (+) or loss (−) / Increase (+) or decrease (−) of cumulative food intake: D-analog series; for Increase (+) or decrease (−) of cumulative water intake / Increase (+) or decrease (−) of cumulative food intake / Decrease(%) of cumulative food intake: vs vehicle; for Food intake relative to OB3: truncated analogs
Protocol: A. Housing: 6–8-week old homozygous female obese (ob/ob) and wild type (+1+) mice (C57BL/6J, Jackson Laboratory, Bar Harbor, Maine) were maintained in a temperature-controlled room (24° C.) in the Albany Medical College Animal Resources Facility under alternating 12-h light and dark periods (lights on 0700–1900 h). The animals were housed three per cage, and allowed food and water ad libitum for six days following their arrival.
Food and water remaining after 24 h was measured to the nearest 0.1 g and 0.1 ml, respectively, and the average amount consumed per mouse was calculated (mean±SEM, n=6). The mice were weighed once daily between 0900 and 1100 h on an Acculab V-333 electronic balance (Cole-Parmer, Vernon Hills, Ill.)
C. […] Control mice received 0.2 ml PBS (ip) only.
Female C7BL/6J ob/ob mice were given a single ip injection of vehicle (PBS, pH 7.2), LEP-(116–130) or truncated peptide (1 mg/200 ul PBS) for seven consecutive days. Daily changes in body weight compared to pretreatment weights of vehicle-injected control and peptide-treated mice were analyzed.

[2] = Blood glucose in female C57BL/6J ob/ob mice (Example 11); conditions: 1 mg/day ip
Protocol: D. Measurement of blood glucose: Blood was drawn from the tail vein of each mouse 2 h before the onset of the dark period at the beginning of the study, and after 2, 4, and 6 days of peptide treatment. The blood was applied to a test strip, and glucose levels were measured with a Glucometer Elite (Bayer, Elkhart, Ind.) glucose monitor.

[3] = Epitope mapping: body weight and food intake in female C57BL/6J ob/ob mice, 7 daily ip injections; conditions: 7 days; for Cumulative food intake / Percent heavier (+) or lighter (−) than initial weight / Weight gain (+) or loss (−): 1 mg/day ip
Protocol: Animal procedures. Feeding and weighing schedules, as well as peptide administration protocols, are as described in EXAMPLE 8, supra.
Statistical analysis. Changes in body weight and differences in food intake between peptide-treated and vehicle-injected control mice were analyzed by analysis of variance (ANOVA) and considered significant when P<0.05.
Female ob/ob mice (n=6 per group) were given a single ip injection of 0.2 ml of vehicle (PBS, pH 7.2) or leptin-related synthetic peptide amide in 0.2 ml PBS for 7 consecutive days. Daily changes in body weight compared to pretreatment weights in both vehicle-injected control and peptide-treated mice are shown in FIG. 4. […] There was no evidence of weight loss in response to peptide treatment.

[4] = 12-day ip study of body weight gain and food intake in female C57BL/6J ob/ob mice; conditions: 1 mg/day ip, 12 days
Protocol: The graphs show changes in body weight (expressed as percent of initial weight) and food intake (expressed as mg/gm body weight/mouse) for mice given vehicle or synthetic leptin-related peptide OB3 (1 mg/day, ip, 12 days).
Mice were injected with leptin-related synthetic peptide (1 mg/g body weight, ip) or vehicle daily for 12 consecutive days. Each bar represents mean±SEM food consumption per mouse (n=6 mice per group) after 3, 6, 9 and 12 days of treatment.
Each value represents mean±SEM change in body weight for a group of 6 mice.
Mice were injected with leptin-related synthetic peptide (1 mg/g body weight, ip) or vehicle for 12 consecutive days. Each bar and vertical line represents mean±food consumption per mouse (n=6 mice per group) after 3, 6, 9 and 12 days of treatment.

## Ser-Cys-Ser-Leu-Pro-[D-Gln]-Thr (SCSLP[dQ]T) [[D-Gln-6]-OB3]
[1]; 7 days
  Cumulative water intake: 57.1 ± 1.0 ml/mouse
  Cumulative food intake: 43.5 ± 0.9 g/mouse
  Heavier (+) or lighter (−) than initial weight: +4.6%
  Weight gain (+) or loss (−): +2.1 ± 0.14 g
  Food intake of D-analogs: reduced food intake when compared to vehicle-injected control mice, but not to the level seen in mice receiving OB3
[1]
  Increase (+) or decrease (−) of cumulative water intake: −11.1%
  Increase (+) or decrease (−) of cumulative food intake: −13.7%
[2]; Day 2
  Serum glucose level: 394.0 ± 45.4 mg/dL
[2]; Day 4
  Serum glucose level: 354.5 ± 17.3 mg/dL
[2]; Day 6
  Serum glucose level: 358.0 ± 28.1 mg/dL

## V Y Q Q V L T S L P S Q N V L (VYQQVLTSLPSQNVL) [LEP(81–95)]
[3]
  Cumulative food intake: 39.5 ± 1.1 gm/mouse
  Percent heavier (+) or lighter (−) than initial weight: +26.0%
  Weight gain (+) or loss (−): +6.2 g

## D F I P G L H P I L S L S K M (DFIPGLHPILSLSKM) [LEP(61–75)]
[3]
  Cumulative food intake: 44.6 ± 2.3 gm/mouse
  Percent heavier (+) or lighter (−) than initial weight: +24.0%
  Weight gain (+) or loss (−): +5.9 g

## SCSLPQTSG [LEP-(116–124)]
[1]; 7 days
  Cumulative food intake g/mouse3 g/mouse3: 34.6 ± 0.9 g/mouse
  Decrease(%) of cumulative food intake: 22.6%
  Food intake relative to OB3: equivalent to that of mice treated with OB3

## [D-Ser][D-Cys][D-Ser][D-Leu][D-Pro][D-Gln][D-Thr] [[D]-OB3]
[1]; 7 days
  Cumulative water intake: 67.5 ± 2.2 ml/mouse
  Cumulative food intake: 52.7 ± 1.0 g/mouse
  Heavier (+) or lighter (−) than initial weight: +10.0%
  Weight gain (+) or loss (−): +4.0 ± 0.36 g
  Food intake of D-analogs: slight increase in food consumption
[1]
  Increase (+) or decrease (−) of cumulative water intake: +5.1%
  Increase (+) or decrease (−) of cumulative food intake: +4.6%
[2]; Day 2
  Serum glucose level: 325.7 ± 31.5 mg/dL
[2]; Day 4
  Serum glucose level: 405.5 ± 35.8 mg/dL
[2]; Day 6
  Serum glucose level: 401.8 ± 25.0 mg/dL

## S L S K M D Q T L A V Y Q Q V (SLSKMDQTLAVYQQV) [LEP(71–85)]
[3]
  Cumulative food intake: 35.5 ± 1.1^b gm/mouse
  Percent heavier (+) or lighter (−) than initial weight: +20.0%
  Weight gain (+) or loss (−): +5.0 g
  Food intake vs vehicle: significantly (P=0.01) less than vehicle-injected control mice

## SCSL[dP]QT [[D-Pro-5]-OB3]
[1]; 7 days
  Cumulative water intake: 32.2 ± 0.8^b ml/mouse
  Cumulative food intake: 36.0 ± 12^b g/mouse
  Heavier (+) or lighter (−) than initial weight: +2.4%
  Weight gain (+) or loss (−): +1.2 ± 0.13^b g
  Food intake of D-analogs: equivalent to that of mice receiving OB3
  Water consumption relative to OB3: significantly less than that seen in mice receiving OB3
[1]
  Increase (+) or decrease (−) of cumulative water intake: −49.8%
  Increase (+) or decrease (−) of cumulative food intake: −28.6%
[2]; Day 2
  Serum glucose level: 272.0 ± 22.2^b mg/dl
[2]; Day 4
  Serum glucose level: 213.0 ± 28.4^a mg/dl
[2]; Day 6
  Serum glucose level: 202.8 ± 31.4^a mg/dl

## SCSLPQTS [LEP-(116–123)]
[1]; 7 days
  Cumulative food intake g/mouse3 g/mouse3: 34.3 ± 10 g/mouse
  Decrease(%) of cumulative food intake: 23.3%
  Food intake relative to OB3: equivalent to that of mice treated with OB3

## SCSLPQ [LEP-(116–121)]
[1]; 7 days
  Cumulative food intake g/mouse3 g/mouse3: 41.6 ± 1.4 g/mouse
  Decrease(%) of cumulative food intake: 6.8%
  Food intake less than vehicle-injected control mice: 6.8%

## S[dC]SLPQT [[D-Cys-2]-OB3]
[1]; 7 days
  Cumulative water intake: 62.7 ± 1.7 ml/mouse
  Cumulative food intake: 47.6 ± 0.8 g/mouse
  Heavier (+) or lighter (−) than initial weight: +12.8%
  Weight gain (+) or loss (−): +4.8 ± 0.11 g
  Food intake of D-analogs: reduced food intake when compared to vehicle-injected control mice, but not to the level seen in mice receiving OB3
[1]
  Increase (+) or decrease (−) of cumulative water intake: −2.3%
  Increase (+) or decrease (−) of cumulative food intake: −5.6%
[2]; Day 2
  Serum glucose level: 298.0 ± 27.9 mg/dL
[2]; Day 4
  Serum glucose level: 403.0 ± 41.1 mg/dL
[2]; Day 6
  Serum glucose level: 346.2 ± 31.7 mg/dL

## Ser-Cys-[D-Ser]-Leu-Pro-Gln-Thr (SC[dS]LPQT) [[D-Ser-3]-OB3]
[1]; 7 days
  Cumulative water intake: 53.2 ± 1.1 ml/mouse
  Cumulative food intake: 45.9 ± 0.6 g/mouse
  Heavier (+) or lighter (−) than initial weight: +13.2%
  Weight gain (+) or loss (−): +4.7 ± 0.67 g
  Food intake of D-analogs: reduced food intake when compared to vehicle-injected control mice, but not to the level seen in mice receiving OB3
[1]
  Increase (+) or decrease (−) of cumulative water intake: −17.1%
  Increase (+) or decrease (−) of cumulative food intake: −8.9%
[2]; Day 2
  Serum glucose level: 385.0 ± 10.0 mg/dL
[2]; Day 4
  Serum glucose level: 337.0 ± 43.6 mg/dL
[2]; Day 6
  Serum glucose level: 348.2 ± 14.0 mg/dL

## [D-Ser]-Cys-Ser-Leu-Pro-Gln-Thr ([dS]CSLPQT) [[D-Ser-1]-OB3]
[1]; 7 days
  Cumulative water intake: 58.0 ± 1.8 ml/mouse
  Cumulative food intake: 44.4 ± 1.4 g/mouse
  Heavier (+) or lighter (−) than initial weight: +4.6%
  Weight gain (+) or loss (−): +3.3 ± 0.18 g
  Food intake of D-analogs: reduced food intake when compared to vehicle-injected control mice, but not to the level seen in mice receiving OB3
[1]
  Increase (+) or decrease (−) of cumulative water intake: −9.7%
  Increase (+) or decrease (−) of cumulative food intake: −11.9%
[2]; Day 2
  Serum glucose level: 356.0 ± 21.2 mg/dL
[2]; Day 4
  Serum glucose level: 360.1 ± 25.1 mg/dL
[2]; Day 6
  Serum glucose level: 287.0 ± 24.4 mg/dL

## Ser-Cys-Ser-Leu-Pro-Gln-[D-Thr] (SCSLPQ[dT]; not fully specified; printed as Ser-Cys-Ser-Leu-Pro-Gln-[D-Thr]) [[D-Thr-7]-OB3]
[1]; 7 days
  Cumulative water intake: 68.3 ± 2.7 ml/mouse
  Cumulative food intake: 56.1 ± 0.6 g/mouse
  Heavier (+) or lighter (−) than initial weight: +10.6%
  Weight gain (+) or loss (−): +4.6 ± 0.34 g
  Food intake of D-analogs: slight increase in food consumption
[1]
  Increase (+) or decrease (−) of cumulative water intake: +6.4%
  Increase (+) or decrease (−) of cumulative food intake: +11.3%
[2]; Day 2
  Serum glucose level: 384.2 ± 18.1 mg/dL
[2]; Day 4
  Serum glucose level: 405.5 ± 16.0 mg/dL
[2]; Day 6
  Serum glucose level: 375.7 ± 17.8 mg/dL

## S Q N V L Q I A N D L E N L R (SQNVLQIANDLENLR; not fully specified (N-terminus)) [LEP(91–105)]
[3]
  Cumulative food intake: 36.1 ± 0.7^b gm/mouse
  Percent heavier (+) or lighter (−) than initial weight: +18.6%
  Weight gain (+) or loss (−): +5.2 g
  Food intake vs vehicle: significantly (P=0.01) less than vehicle-injected control mice

## Ser-Cys-Ser-Leu-Pro (SCSLP; printed: Ser-Cys-Ser-Leu-Pro) [LEP-(116–120)]
[1]; 7 days
  Cumulative food intake g/mouse3 g/mouse3: 42.4 ± 1.2 g/mouse
  Decrease(%) of cumulative food intake: 6.2%
  Food intake less than vehicle-injected control mice: 6.2%
[4]
  Body weight gain and food intake vs vehicle: did not approximate the activity observed with LEP(116–130)

Reference: patent US7208572B2, “Leptin-related peptides” (Albany Medical College, priority 1998, dated 2007)
